Results on 19 compounds are retold here after ChEMBL document CHEMBL2034957, “Synthesis and antitumor evaluation of novel benzo[d]pyrrolo[2,1-b]thiazole derivatives” (Eur J Med Chem, 2012).

For experiment [1], the system named is CCRF-CEM. Briefly: Cytotoxicity against human CCRF-CEM cells after 72 hrs by XTT assay. The class given is functional, cell-based. A general note: Formazan colour is commonly taken as a measure of viable cells.
The nature of experiment [2]: Cytotoxicity against human U87 cells after 72 hrs by alamar blue assay. The format is functional, cell-based, U-87MG ATCC. The conditions noted are these: U-87 MG.
The test system of experiment [3] is CCRF-CEM. Description: Ratio of IC50 for human taxol-resistant CCRF-CEM cells to IC50 for human CCRF-CEM cells. The class given is functional.
A short description of experiment [4]: Cytotoxicity against human H1299 cells after 72 hrs by alamar blue assay. The format is functional, cell-based. The conditions noted are these: NCI-H1299, 72 h. (In general: The colour change of resazurin is a common sign of viable cells or microbes.)
Experiment [5] deals with PC-3. Description: Cytotoxicity against human PC3 cells after 72 hrs by alamar blue assay. The class given is functional, cell-based. The conditions noted are these: PC-3, 72 h.
Experiment [6] concerns CCRF-CEM. Description: Cytotoxicity against human taxol-resistant CCRF-CEM cells after 72 hrs by XTT assay. The format is functional, cell-based.
For experiment [7], the system named is CCRF-CEM. Description: Cytotoxicity against human vinblastine-resistant CCRF-CEM cells after 72 hrs by XTT assay. The class given is functional, cell-based.
Experiment [8] deals with CCRF-CEM. Description: Ratio of IC50 for human vinblastine-resistant CCRF-CEM cells to IC50 for human CCRF-CEM cells. The class given is functional.
Experiment [9] can be described thus: Cytotoxicity against human OECM1 cells after 72 hrs by alamar blue assay. The format is functional, cell-based. The conditions noted are these: OECM1, 72 h.

As to `OCc1c(CO)c2sc3ccccc3n2c1C1CC1`, the IC50 was 970 nM in experiment [1]; 28700 nM in experiment [2]; 13300 nM in [4]; 10700 nM in experiment [5]; 2310 nM in experiment [6]; 2440 nM in experiment [7]. The same compound registered a half-inhibitory concentration (IC50) in experiment [9] of 7120 nM. The results for the “Ratio IC50” value in experiment [3] and in experiment [8] were 2.37 and 2.51, respectively.
The compound `OCc1c(CO)c2sc3ccccc3n2c1-c1ccc(F)c(Cl)c1` showed a 50% inhibitory concentration (IC50) in experiment [1] of 3090 nM.
The same measure, in the same setting: with `CC(C)NC(=O)OCc1c(COC(=O)NC(C)C)c2sc3ccccc3n2c1-c1ccc(F)c(Cl)c1` the figure was 500 nM.
As to `CC[C@]1(O)C[C@@H]2CN(CCc3c([nH]c4ccccc34)[C@@](C(=O)OC)(c3cc4c(cc3OC)N(C)[C@H]3[C@@](O)(C(=O)OC)[C@H](OC(C)=O)[C@]5(CC)C=CCN6CC[C@]43[C@@H]65)C2)C1` [VINBLASTINE], the figures for the “Ratio IC50” value in experiment [3] and in experiment [8] were 106 and 680, respectively.
Turning to `OCc1c(CO)c2sc3ccccc3n2c1-c1ccc(F)c(F)c1`, the IC50 in [1] is 190 nM; in experiment [2], 17400 nM; in experiment [4], 21400 nM; in experiment [5] it was 15200 nM; in experiment [6] it was 190 nM; in experiment [7], 280 nM. Also, the IC50 in [9] came out at 8480 nM. In addition, the “Ratio IC50” value is recorded as 1 in [3] and 1.47 in [8].
In [1], `CCNC(=O)OCc1c(COC(=O)NCC)c2sc3ccccc3n2c1-c1ccc(OC)c(OC)c1` gave an IC50 of 490 nM.
The same measure, in the same setting: under `COc1cc(-c2c(CO)c(CO)c3sc4ccccc4n23)cc(OC)c1OC` stands 4030 nM; under `CC(C)NC(=O)OCc1c(COC(=O)NC(C)C)c2sc3ccccc3n2c1-c1ccc(Cl)c(Cl)c1`, 2290 nM.
On the same count and under the same terms, under `OCc1c(CO)c2sc3ccccc3n2c1-c1ccc(Cl)c(Cl)c1` stands 1040 nM.
For `CCNC(=O)OCc1c(COC(=O)NCC)c2sc3ccccc3n2c1C`, the half-inhibitory concentration (IC50) in experiment [1] stood at 330 nM; in experiment [6] it was 450 nM; in experiment [7] it was 430 nM. Also, the “Ratio IC50” value in experiment [3] and in experiment [8] was 1.3 throughout.
`COc1ccc(-c2c(CO)c(CO)c3sc4ccccc4n23)cc1OC` returned a half-inhibitory concentration (IC50) in experiment [1] of 1820 nM.
As to `CC(=O)O[C@H]1C(=O)[C@@]2(C)[C@H]([C@H](OC(=O)c3ccccc3)[C@]3(O)C[C@H](OC(=O)[C@H](O)[C@@H](NC(=O)c4ccccc4)c4ccccc4)C(C)=C1C3(C)C)[C@]1(OC(C)=O)CO[C@@H]1C[C@@H]2O` [PACLITAXEL], the “Ratio IC50” value in [3] was determined as 358; in experiment [8], 980.
Take `CC(C)NC(=O)OCc1c(COC(=O)NC(C)C)c2sc3ccccc3n2c1C1CC1`: the concentration for half-maximal inhibition (IC50) in experiment [1] came to 100 nM; in experiment [2] it was 45500 nM; in experiment [4] it was 20400 nM; in experiment [5] it was 13400 nM; in [6] it was 730 nM; in experiment [7], 900 nM. Besides, half-maximal inhibition in experiment [9] (IC50) was put at 9670 nM. Besides, the “Ratio IC50” value in [3] is 7.3; in [8] it was 9.
Take `CCNC(=O)OCc1c(COC(=O)NCC)c2sc3ccccc3n2c1C1CC1`: the concentration for half-maximal inhibition (IC50) came out at 170 nM in [1]; 74500 nM in experiment [2]; 20600 nM in experiment [4]; 24200 nM in experiment [5]; 680 nM in experiment [6]; 540 nM in experiment [7]. This compound registered a 50% inhibitory concentration (IC50) in experiment [9] of 26300 nM. The “Ratio IC50” value is listed as 4.01 in experiment [3] and 3.18 in experiment [8].
Consider `CCNC(=O)OCc1c(COC(=O)NCC)c2sc3ccccc3n2c1-c1ccc(Cl)c(Cl)c1`, for which, in experiment [1], half-maximal inhibition (IC50) was put at 380 nM.
The same measure, in the same setting: under `COc1cc(-c2c(COC(=O)NC(C)C)c(COC(=O)NC(C)C)c3sc4ccccc4n23)cc(OC)c1OC` stands 1050 nM; under `CCNC(=O)OCc1c(COC(=O)NCC)c2sc3ccccc3n2c1-c1ccc(F)c(Cl)c1`, 380 nM.
Same read-out and setting: with `CCNC(=O)OCc1c(COC(=O)NCC)c2sc3ccccc3n2c1-c1cc(OC)c(OC)c(OC)c1` the figure was 320 nM; with `COc1ccc(-c2c(COC(=O)NC(C)C)c(COC(=O)NC(C)C)c3sc4ccccc4n23)cc1OC`, 110 nM.

As usually defined, the IC50 is the concentration that gives 50% inhibition. The low end stands for inhibition by little substance, the high end for a need for much substance.
